Consider 3 molecules from patent publication US20060241301A1, “Urea derivatives and their use as tyrosinkinase inhibitors” (priority 2003, published 2006).

The target in one assay is RAF. The assay is described as follows: RAF kinase inhibition. The assay is classed as biochemical.
A further assay concerns the target TIE-2 (Homo sapiens, UniProt Q02763). Put plainly: TIE-2 kinase flashplate assay (phosphorylation of poly(Glu, Tyr), 33P-ATP). Type of assay: biochemical. The conditions noted are these: read-out: Inhibition by TIE-2 IC50. The procedure: The TIE-2 tests can be carried out, for example, analogously to the methods indicated in WO 02/44156.
The assay determines the inhibiting activity of the substances to be tested in the phosphorylation of the substrate poly(Glu, Tyr) by Tie-2 kinase in the presence of radioactive ^33P-ATP. The phosphorylated substrate binds to the surface of a “flashplate” microtitre plate during the incubation time. After removal of the reaction mixture, the microtitre plate is washed a number of times and the radioactivity on its surface is subsequently measured. An inhibiting effect of the substances to be measured results in lower radioactivity compared with an undisturbed enzymatic reaction.

TIE-2, sequence (Q02763 23-1124, species assumed): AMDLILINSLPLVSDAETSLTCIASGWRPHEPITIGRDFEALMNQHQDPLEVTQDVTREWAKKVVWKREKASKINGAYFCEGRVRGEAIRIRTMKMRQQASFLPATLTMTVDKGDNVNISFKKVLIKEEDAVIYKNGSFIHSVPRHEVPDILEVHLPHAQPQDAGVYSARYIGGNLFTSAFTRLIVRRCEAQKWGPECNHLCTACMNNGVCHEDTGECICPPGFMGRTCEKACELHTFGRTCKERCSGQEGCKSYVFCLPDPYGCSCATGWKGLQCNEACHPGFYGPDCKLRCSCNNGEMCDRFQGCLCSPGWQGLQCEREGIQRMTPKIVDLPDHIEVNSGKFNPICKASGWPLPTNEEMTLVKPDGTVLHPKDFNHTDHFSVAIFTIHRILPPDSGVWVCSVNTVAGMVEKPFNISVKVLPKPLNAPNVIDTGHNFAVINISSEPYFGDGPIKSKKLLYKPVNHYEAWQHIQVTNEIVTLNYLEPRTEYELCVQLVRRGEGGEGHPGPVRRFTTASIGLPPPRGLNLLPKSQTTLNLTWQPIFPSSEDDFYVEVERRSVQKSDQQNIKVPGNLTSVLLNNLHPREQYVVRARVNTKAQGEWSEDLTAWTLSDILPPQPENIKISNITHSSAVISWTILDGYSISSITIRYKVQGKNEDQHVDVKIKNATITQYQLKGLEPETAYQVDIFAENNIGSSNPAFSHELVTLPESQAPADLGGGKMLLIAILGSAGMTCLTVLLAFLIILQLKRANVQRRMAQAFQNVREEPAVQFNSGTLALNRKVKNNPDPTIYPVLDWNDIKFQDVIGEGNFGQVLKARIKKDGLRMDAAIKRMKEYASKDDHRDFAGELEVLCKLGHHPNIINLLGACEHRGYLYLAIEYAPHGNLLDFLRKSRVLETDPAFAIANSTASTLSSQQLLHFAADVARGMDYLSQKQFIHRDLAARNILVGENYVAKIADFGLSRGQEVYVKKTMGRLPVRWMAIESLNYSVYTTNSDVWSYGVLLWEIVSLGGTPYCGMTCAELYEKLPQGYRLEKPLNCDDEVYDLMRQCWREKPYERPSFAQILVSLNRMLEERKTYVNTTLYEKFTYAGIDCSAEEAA

For orientation: IC50 means the midpoint of a concentration-inhibition curve. On to `CNC(=O)c1cc(Oc2ccc(NC(=O)Nc3ccc(Cl)c(C(F)(F)F)c3)cc2)ccn1`, for which, at RAF, the IC50 stood at 264 nM. As for `O=C(Nc1ccc(Oc2ccc3nsnc3c2)cc1)Nc1cc(C(F)(F)F)ccc1F` [A1, 1-[4-(Benzo-1,2,5-thiadiazol-5-yloxy)phenyl]-3-(2-fluoro-5-trifluoromethylphenyl)urea], the IC50 came out at 220 nM at RAF and 57 nM at TIE-2.

For `CNC(=O)c1cc(Oc2ccc(NC(=O)Nc3cc(C(F)(F)F)ccc3F)cc2)ccn1` [No. 2, N-methyl-4-{4-[3-(fluorotrifluoromethylphenyl)ureido]phenoxy}pyridine-2-carboxamide], at TIE-2, the IC50 was determined as 32 nM.
